# According to US20070128217A1 (priority 2003, published 2007):
# Tests used:
# [1] = system: antibodies in sera from SARS patients (sera 1a, 1b, 2, 6, 37, 62, London, SARS-yellow, SARS-green); assay type: binding, human; design: Binding of serum 6 to linear peptides of protein X1 of SARS-CoV Urbani / Binding of serum 37 to linear peptides of protein X1 of SARS-CoV Urbani / Binding of serum 6 to looped/cyclic peptide (PEPSCAN-ELISA) / Binding of serum 37 to looped/cyclic peptide (PEPSCAN-ELISA) / Binding of serum 37 to looped/cyclic peptides of protein X1 of SARS-CoV Urbani / Binding of serum 6 to linear peptides of protein X2 / Binding of serum 37 to linear peptides of protein X2 / Binding of serum 37 to looped/cyclic peptides of protein X2 of SARS-CoV Urbani / Binding of serum 6 to linear peptides of protein M of SARS-CoV Urbani / Binding of serum 37 to linear peptides of protein M of SARS-CoV Urbani / Binding of serum 6 to looped/cyclic peptides of protein M of SARS-CoV Urbani / Binding of serum 37 to looped/cyclic peptides of protein M of SARS-CoV Urbani / Binding of serum 6 to linear peptides of protein X3 of SARS-CoV Urbani / Binding of serum 37 to linear peptides of protein X3 of SARS-CoV Urbani / Binding of serum 37 to looped/cyclic peptides of protein X3 of SARS-CoV Urbani / Binding of serum 6 to linear peptides of protein X4 of SARS-CoV Urbani / Binding of serum 37 to linear peptides of protein X4 of SARS-CoV Urbani / Binding of serum 37 to looped/cyclic peptides of protein X4 of SARS-CoV Urbani / Binding of serum 6 to linear peptides of protein X5 of SARS-CoV Urbani / Binding of serum 37 to linear peptides of protein X5 of SARS-CoV Urbani / Binding of serum 37 to looped/cyclic peptides of protein X5 of SARS-CoV Urbani / Binding of serum 6 to linear peptides of protein N of SARS-CoV Urbani / Binding of serum 37 to linear peptides of protein N of SARS-CoV Urbani / Binding of serum 6 to linear peptide (PEPSCAN-ELISA) / Binding of serum 1a to looped/cyclic peptides of protein N of SARS-CoV Urbani / Binding of serum 1b to looped/cyclic peptides of protein N of SARS-CoV Urbani / Binding of serum 2 to looped/cyclic peptides of protein N of SARS-CoV Urbani / Binding of serum 6 to looped/cyclic peptides of protein N of SARS-CoV Urbani / Binding of serum 37 to looped/cyclic peptides of protein N of SARS-CoV Urbani / Binding of serum 62 to looped/cyclic peptides of protein N of SARS-CoV Urbani / Binding of serum London to looped/cyclic peptides of protein N of SARS-CoV Urbani / Binding of serum SARS-green to looped/cyclic peptides of protein N of SARS-CoV Urbani: unit not given here
# [2] = system: control sera (pooled serum of ten healthy LUMC hospital workers; commercial negative donor pooled serum from the Dutch bloodbank); assay type: binding, human; design: Binding of Control serum LUMC to linear peptides / Binding of Control serum Blood-bank to linear peptides / Binding of Control serum LUMC to looped peptides / Binding of Control Serum Blood-Bank to Looped peptides / Binding of Control serum LUMC to linear peptides of the protein M of SARS-CoV Urbani / Binding of Control serum Blood-bank to linear peptides of the protein M of SARS-CoV Urbani / Binding of Control serum LUMC to looped peptides of the protein M of SARS-CoV Urbani / Binding of Control Serum Blood-Bank to Looped peptides of the protein M of SARS-CoV Urbani: unit not given here
# [3] = system: rabbit serum obtained by immunizing a rabbit with the SARS-CoV strain Frankfurt 1; assay type: binding; design: Binding of a rabbit serum to linear peptides / Binding of a rabbit serum to looped peptides / Rabbit serum linear peptides / Rabbit serum looped peptides / Binding of a rabbit serum to linear peptides of protein N of SARS-CoV Urbani (Rabbit serum linear peptides) / Binding of a rabbit serum to looped/cyclic peptides of protein N of SARS-CoV Urbani (Rabbit serum looped peptides): unit not given here
sequence,measurement,setting,value
MWSFNPETNILLNVP,Binding of serum 1a to linear peptides of protein M of SARS-CoV Urbani,[1],0.8
same,Binding of serum 1a to looped/cyclic peptides of protein M of SARS-CoV Urbani,[1],0.8
same,Binding of serum 1b to linear peptides of protein M of SARS-CoV Urbani,[1],0.5
same,Binding of serum 1b to looped/cyclic peptides of protein M of SARS-CoV Urbani,[1],0.7
same,Binding of serum 2 to linear peptides of protein M of SARS-CoV Urbani,[1],0.8
same,Binding of serum 2 to looped/cyclic peptides of protein M of SARS-CoV Urbani,[1],0.9
same,Binding of serum 6 to linear peptides of protein M of SARS-CoV Urbani,[1],0.4
same,Binding of serum 6 to looped/cyclic peptides of protein M of SARS-CoV Urbani,[1],0.5
same,Binding of serum 37 to linear peptides of protein M of SARS-CoV Urbani,[1],0.9
same,Binding of serum 37 to looped/cyclic peptides of protein M of SARS-CoV Urbani,[1],0.8
same,Binding of serum 62 to linear peptides of protein M of SARS-CoV Urbani,[1],0.9
same,Binding of serum 62 to looped/cyclic peptides of protein M of SARS-CoV Urbani,[1],0.8
same,Binding of serum London to linear peptides of protein M of SARS-CoV Urbani,[1],0.3
same,Binding of serum London to looped/cyclic peptides of protein M of SARS-CoV Urbani,[1],0.2
same,Binding of serum SARS-green to linear peptides of protein M of SARS-CoV Urbani,[1],0.3
same,Binding of serum SARS-green to looped/cyclic peptides of protein M of SARS-CoV Urbani,[1],0.3
same,Binding of serum SARS-yellow to linear peptides of protein M of SARS-CoV Urbani,[1],0.1
same,Binding of serum SARS-yellow to looped/cyclic peptides of protein M of SARS-CoV Urbani,[1],0.6
same,Binding of Control Serum Blood-Bank to Looped peptides of the protein M of SARS-CoV Urbani,[2],0.8
same,Binding of Control serum Blood-bank to linear peptides of the protein M of SARS-CoV Urbani,[2],0.9
same,Binding of Control serum LUMC to linear peptides of the protein M of SARS-CoV Urbani,[2],0.5
same,Binding of Control serum LUMC to looped peptides of the protein M of SARS-CoV Urbani,[2],0.8
same,Rabbit serum linear peptides,[3],0.4
same,Rabbit serum looped peptides,[3],0.2
QTAAFRDVLVVLNKR,Binding of serum 1a to linear peptides of protein X5 of SARS-CoV Urbani,[1],0.5
same,Binding of serum 1a to looped/cyclic peptides of protein X5 of SARS-CoV Urbani,[1],0.6
same,Binding of serum 1b to linear peptides of protein X5 of SARS-CoV Urbani,[1],0.5
same,Binding of serum 1b to looped/cyclic peptides of protein X5 of SARS-CoV Urbani,[1],0.5
same,Binding of serum 2 to linear peptides of protein X5 of SARS-CoV Urbani,[1],0.6
same,Binding of serum 2 to looped/cyclic peptides of protein X5 of SARS-CoV Urbani,[1],0.6
same,Binding of serum 6 to linear peptides of protein X5 of SARS-CoV Urbani,[1],0.6
same,Binding of serum 6 to looped/cyclic peptides of protein X5 of SARS-CoV Urbani,[1],0.8
same,Binding of serum 37 to linear peptides of protein X5 of SARS-CoV Urbani,[1],0.5
same,Binding of serum 37 to looped/cyclic peptides of protein X5 of SARS-CoV Urbani,[1],0.6
same,Binding of serum 62 to linear peptides of protein X5 of SARS-CoV Urbani,[1],0.4
same,Binding of serum 62 to looped/cyclic peptides of protein X5 of SARS-CoV Urbani,[1],0.6
same,Binding of serum London to linear peptides of protein X5 of SARS-CoV Urbani,[1],0.5
same,Binding of serum London to looped/cyclic peptides of protein X5 of SARS-CoV Urbani,[1],0.5
same,Binding of serum SARS-green to linear peptides of protein X5 of SARS-CoV Urbani,[1],0.2
same,Binding of serum SARS-green to looped/cyclic peptides of protein X5 of SARS-CoV Urbani,[1],0.3
same,Binding of serum SARS-yellow to linear peptides of protein X5 of SARS-CoV Urbani,[1],0.6
same,Binding of serum SARS-yellow to looped/cyclic peptides of protein X5 of SARS-CoV Urbani,[1],0.4
same,Binding of Control Serum Blood-Bank to Looped peptides,[2],0.7
same,Binding of Control serum Blood-bank to linear peptides,[2],0.6
same,Binding of Control serum LUMC to linear peptides,[2],0.8
same,Binding of Control serum LUMC to looped peptides,[2],0.5
same,Rabbit serum linear peptides,[3],0.4
same,Rabbit serum looped peptides,[3],0.5
MSRRRLLACLCKHKK,Binding of serum 1a to looped/cyclic peptides of protein X2 of SARS-CoV Urbani,[1],0.2
same,Binding of serum 1b to looped/cyclic peptides of protein X2 of SARS-CoV Urbani,[1],0.1
same,Binding of serum 2 to looped/cyclic peptides of protein X2 of SARS-CoV Urbani,[1],0.0
same,Binding of serum 6 to looped/cyclic peptides of protein X2 of SARS-CoV Urbani,[1],0.1
same,Binding of serum 37 to looped/cyclic peptides of protein X2 of SARS-CoV Urbani,[1],0.2
same,Binding of serum 62 to looped/cyclic peptides of protein X2 of SARS-CoV Urbani,[1],0.3
same,Binding of serum London to looped/cyclic peptides of protein X2 of SARS-CoV Urbani,[1],0.1
same,Binding of serum SARS-green to looped/cyclic peptides of protein X2 of SARS-CoV Urbani,[1],0.1
same,Binding of serum SARS-yellow to looped/cyclic peptides of protein X2 of SARS-CoV Urbani,[1],0.1
same,"Recognition of the peptide by sera of SARS-CoV infected individuals, and form (linear, looped/cyclic) in which it is recognized",[1],recognized in linear form
same,Binding of Control Serum Blood-Bank to Looped peptides,[2],0.3
same,Binding of Control serum Blood-bank to linear peptides,[2],0.7
same,Binding of Control serum LUMC to linear peptides,[2],0.5
same,Binding of Control serum LUMC to looped peptides,[2],0.2
same,Binding of a rabbit serum to linear peptides,[3],0.2
same,Binding of a rabbit serum to looped peptides,[3],0.3
ATATIPLQASLPFGW,Binding of serum 1a to linear peptides of protein X1 of SARS-CoV Urbani,[1],0.9
same,Binding of serum 1a to looped/cyclic peptide (PEPSCAN-ELISA),[1],0.6
same,Binding of serum 1b to linear peptides of protein X1 of SARS-CoV Urbani,[1],0.7
same,Binding of serum 1b to looped/cyclic peptide (PEPSCAN-ELISA),[1],0.5
same,Binding of serum 2 to linear peptides of protein X1 of SARS-CoV Urbani,[1],0.7
same,Binding of serum 2 to looped/cyclic peptide (PEPSCAN-ELISA),[1],0.5
same,Binding of serum 6 to linear peptides of protein X1 of SARS-CoV Urbani,[1],0.7
same,Binding of serum 6 to looped/cyclic peptide (PEPSCAN-ELISA),[1],0.5
same,Binding of serum 37 to linear peptides of protein X1 of SARS-CoV Urbani,[1],0.7
same,Binding of serum 37 to looped/cyclic peptide (PEPSCAN-ELISA),[1],0.7
same,Binding of serum 62 to linear peptides of protein X1 of SARS-CoV Urbani,[1],0.8
same,Binding of serum 62 to looped/cyclic peptide (PEPSCAN-ELISA),[1],0.7
same,Binding of serum London to linear peptides of protein X1 of SARS-CoV Urbani,[1],0.4
same,Binding of serum London to looped/cyclic peptide (PEPSCAN-ELISA),[1],0.3
same,Binding of serum SARS-green to linear peptides of protein X1 of SARS-CoV Urbani,[1],0.4
same,Binding of serum SARS-green to looped/cyclic peptide (PEPSCAN-ELISA),[1],0.3
same,Binding of serum SARS-yellow to linear peptides of protein X1 of SARS-CoV Urbani,[1],0.5
same,Binding of serum SARS-yellow to looped/cyclic peptide (PEPSCAN-ELISA),[1],0.4
same,Binding of Control Serum Blood-Bank to Looped peptides,[2],0.8
same,Binding of Control serum Blood-bank to linear peptides,[2],0.9
same,Binding of Control serum LUMC to linear peptides,[2],0.7
same,Binding of Control serum LUMC to looped peptides,[2],0.7
same,Binding of a rabbit serum to linear peptides,[3],0.1
same,Binding of a rabbit serum to looped peptides,[3],0.6
LLVAAGMEAQFLYLY,Binding of serum 1a to linear peptides of protein X1 of SARS-CoV Urbani,[1],0.8
same,Binding of serum 1a to looped/cyclic peptide (PEPSCAN-ELISA),[1],0.6
same,Binding of serum 1b to linear peptides of protein X1 of SARS-CoV Urbani,[1],0.7
same,Binding of serum 1b to looped/cyclic peptide (PEPSCAN-ELISA),[1],0.5
same,Binding of serum 2 to linear peptides of protein X1 of SARS-CoV Urbani,[1],0.6
same,Binding of serum 2 to looped/cyclic peptide (PEPSCAN-ELISA),[1],0.6
same,Binding of serum 6 to linear peptides of protein X1 of SARS-CoV Urbani,[1],0.5
same,Binding of serum 6 to looped/cyclic peptide (PEPSCAN-ELISA),[1],0.3
same,Binding of serum 37 to linear peptides of protein X1 of SARS-CoV Urbani,[1],0.6
same,Binding of serum 37 to looped/cyclic peptide (PEPSCAN-ELISA),[1],0.6
same,Binding of serum 62 to linear peptides of protein X1 of SARS-CoV Urbani,[1],0.5
same,Binding of serum 62 to looped/cyclic peptide (PEPSCAN-ELISA),[1],0.6
same,Binding of serum London to linear peptides of protein X1 of SARS-CoV Urbani,[1],0.3
same,Binding of serum London to looped/cyclic peptide (PEPSCAN-ELISA),[1],0.2
same,Binding of serum SARS-green to linear peptides of protein X1 of SARS-CoV Urbani,[1],0.1
same,Binding of serum SARS-green to looped/cyclic peptide (PEPSCAN-ELISA),[1],0.4
same,Binding of serum SARS-yellow to linear peptides of protein X1 of SARS-CoV Urbani,[1],0.4
same,Binding of serum SARS-yellow to looped/cyclic peptide (PEPSCAN-ELISA),[1],0.5
same,Binding of Control Serum Blood-Bank to Looped peptides,[2],0.5
same,Binding of Control serum Blood-bank to linear peptides,[2],0.5
same,Binding of Control serum LUMC to linear peptides,[2],0.7
same,Binding of Control serum LUMC to looped peptides,[2],0.6
same,Binding of a rabbit serum to linear peptides,[3],0.2
same,Binding of a rabbit serum to looped peptides,[3],0.5
